In patent US9872849B2, “Diterpenoid membranolide compounds having anti-leishmania activity and uses thereof” (UNIVERSITY OF SOUTH FLORIDA, priority 2014, dated 2018):
Like-named read-outs stand apart in the source and are kept apart here.

Assays:
[1] = tested on: L. donovani axenic amastigotes; experiment: microbe, parasite or virus in culture; assay type: cell-based, Leishmania donovani
Experimental: (§1) Leishmaniasis efficacy was tested against L. donovani axenic amastigotes (amphotericin B, positive control=0.38 μM). Cytotoxicity was verified against Vero cells.

Vero cells = experiment: Cytotoxicity against Vero cells; assay type: cell-based; details: for IC50: cytotoxicity, read-out: IC50 Values Vero Cell
Experimental: as §1

[2] = axenic amastigotes, read-out: IC50 Values Leishmania donovani

Molecule | IC50 [1, 2] | IC50 (Vero cells) | also measured
C[C@@H]1[C@H](O)[C@@H](C)/C=C/C=C/C=C/C=C/C=C/C=C/C=C/[C@H](O[C@@H]2O[C@H](C)[C@@H](O)[C@H](N)[C@@H]2O)C[C@@H]2O[C@](O)(C[C@@H](O)C[C@@H](O)[C@H](O)CC[C@@H](O)C[C@@H](O)CC(=O)O[C@H]1C)C[C@H](O)[C@H]2C(=O)O [amphotericin B, reference compound] | 0.38 µM |  | 
CC(=O)O[C@@H]1OC2OC(=O)[C@H](C)C3=C([C@@]4(C)CCCC(C)(C)C4)CCC1C32 (stereo partly drawn) [Tetrahydroaplysulphurin, tetrahydroaplysulphurin] | 17.3 µM | 53.3 µM | 
membranolide F | 26.7 µM | 42.4 µM | 
CO[C@H]1OC(=O)[C@H](C)c2c([C@@]3(C)CCCC(C)(C)C3)ccc(C=O)c21 [Membranolide B, membranolide B] | 58.1 µM | 44.3 µM | 
membranolide H | 1.14 µM | > 53.1 µM | activity against L. donovani (in words) [1]: potent activity; cytotoxicity (in words) (Vero cells): lacking significant cytotoxicity
CO[C@@H]1O[C@@H](OC)c2c1ccc([C@@]1(C)CCCC(C)(C)C1)c2[C@@H](C)C(=O)O [Membranolide C, membranolide C] | > 53.1 µM | 40.7 µM | 
membranolide A |  | > 58.1 µM | IC50 Values Leishmania donovani ([1]; axenic amastigotes): Inactive
CO[C@@H]1O[C@@H](OC)c2c1ccc([C@@]1(C)CCCC(C)(C)C1)c2[C@@H](C)C(=O)O [Membranolide D, membranolide D] |  |  | IC50 ([1]; Leishmania donovani, axenic amastigotes): > 53.1 µM; IC50 (Vero cells; Chlorocebus sabaeus): 40.7 µM
membranolide G | 0.82 µM | > 53.1 µM | activity against L. donovani (in words) [1]: potent activity; cytotoxicity (in words) (Vero cells): lacking significant cytotoxicity
aplysulphurin | 1.56 µM | 47.7 µM | selectivity index (cytotoxicity/activity) [1]: high selectivity index
